The values that follow come from patent US20260062387A1, “SALT-INDUCIBLE KINASE INHIBITOR COMPOUND AND PHARMACEUTICAL COMPOSITION INCLUDING THE SAME” (MITSUBISHI TANABE PHARMA CORPORATION, priority 2023, published 2026).

Marks after values point to notes of the source that are not given here.

One experiment concerns the target GST-tagged SIK1 (Homo sapiens (Human), UniProt P57059). The experiment in a line: SIK1 inhibition test (ADP-Glo Max Assay). The format is biochemical. As to conditions: enzyme 20 nM, AMARA Peptide 200 μM, ATP 1 mM, 2 hours room temperature. A digest of the protocol:
(§1)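 ADP formed was detected by luciferase luminescence after a 2 h room-temperature reaction with 1 mM ATP, 5 mM MgCl2 and AMARA peptide at 200 μM (SIK1, SIK2) or 100 μM (SIK3). Final GST-enzyme levels were 20 nM SIK1, 3 nM SIK2 and 100 nM SIK3. IC50 came from 16-point concentration-response data.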
In general terms: ADP-Glo turns the ADP formed in a reaction into a luminescent signal.

Experiment [1] has as its system TNF-α in serum of LPS-stimulated mice. The experiment in a line: TNF-α increase inhibition test in LPS-stimulated mouse serums. The format is in vivo, BALB/c mice. As to conditions: 1 mg/kg oral, LPS intraperitoneal 30 minutes later, serum 1.5 hours later. The procedure:
(§2) The compound of Example 106 was used as the test compound.
Six-week old male BALB/c mice were orally administered with a suspension (10 mL/kg) of a concentration of the test compound in 0.5% methylcellulose (MC) solution. 30 Minutes later, […] of LPS (Sigma Aldrich) was intraperitoneally administered. […] The amount of TNF-α production in the serum was measured using CBA […] TNF Flex Set (BD Bioscience).
The inhibitory ratio (%) was calculated by: % Inhibition={1−(amount of TNF-α production in sample−average amount of TNF-α production without stimulus (MC administered, not LPS-stimulated)/(average amount of TNF-α production in control (MC administered, LPS-stimulated)−average amount of TNF-α production without stimulus (MC administered, not LPS-stimulated))}×100. The results are described in Table 4 below.

Another experiment has as its target GST-tagged SIK2 (Homo sapiens (Human), UniProt Q9H0K1). The experiment can be described thus: SIK2 inhibition test (ADP-Glo Max Assay). The class given is biochemical. As to conditions: enzyme 3 nM, AMARA Peptide 200 μM, ATP 1 mM, 2 hours room temperature. A digest of the protocol:
as §1

Experiment [2] deals with TNF-α production in LPS-stimulated human monocytes. The experiment can be described thus: TNF-α production inhibition test in LPS-stimulated human monocytes. The class given is cell-based. The settings on record: Monocyte, LPS 100 ng/mL, 4 hours. The procedure:
as §2
Cryopreserved mononuclear cells derived from human peripheral blood (LONZA K. K.) were thawed at 37° C., and human monocytes were isolated using CD14 Microfleads (Miltenyi Biotec). The isolated human monocytes were mixed with a culture medium (RPMI 1640, 10% FBS, penicillin, streptomycin), and a DMSO solution of a concentration of the test compound was added. The mixture was incubated at 37° C. for 30 minutes. After the incubation, lipopolysaccharide (LPS; Sigma Aldrich) was added so that the final concentration would be 100 ng/mL. The mixture was incubated at 37° C. for 4 hours. After the incubation, the supernatant was recovered and cryopreserved at −80° C. The cryopreserved supernatant was thawed and the amount of TNF-α production in the supernatant was measured using CBA Human TNF Flex Set (BD Bioscience).
Inhibitory ratio (%) was calculated by: % Inhibition={1−(amount of TNF-α production in sample−amount of TNF-α production without stimulus (DMSO added, not LPS-stimulated))/(amount of TNF-α production in control (DMSO added, LPS-stimulated)−amount of TNF-α production without stimulus (DMSO added, not LPS-stimulated))}×100. The inhibitory concentration IC50was calculated based on 4 data values obtained in the concentration response test.

The next experiment deals with GST-tagged SIK3 (Homo sapiens (Human), UniProt Q9Y2K2). The experiment in a line: SIK3 inhibition test (ADP-Glo Max Assay). The class given is biochemical. The settings on record: enzyme 100 nM, AMARA Peptide 100 μM, ATP 1 mM, 2 hours room temperature. In outline: as §1
Chain of GST-tagged SIK3 (Q9Y2K2 whole entry): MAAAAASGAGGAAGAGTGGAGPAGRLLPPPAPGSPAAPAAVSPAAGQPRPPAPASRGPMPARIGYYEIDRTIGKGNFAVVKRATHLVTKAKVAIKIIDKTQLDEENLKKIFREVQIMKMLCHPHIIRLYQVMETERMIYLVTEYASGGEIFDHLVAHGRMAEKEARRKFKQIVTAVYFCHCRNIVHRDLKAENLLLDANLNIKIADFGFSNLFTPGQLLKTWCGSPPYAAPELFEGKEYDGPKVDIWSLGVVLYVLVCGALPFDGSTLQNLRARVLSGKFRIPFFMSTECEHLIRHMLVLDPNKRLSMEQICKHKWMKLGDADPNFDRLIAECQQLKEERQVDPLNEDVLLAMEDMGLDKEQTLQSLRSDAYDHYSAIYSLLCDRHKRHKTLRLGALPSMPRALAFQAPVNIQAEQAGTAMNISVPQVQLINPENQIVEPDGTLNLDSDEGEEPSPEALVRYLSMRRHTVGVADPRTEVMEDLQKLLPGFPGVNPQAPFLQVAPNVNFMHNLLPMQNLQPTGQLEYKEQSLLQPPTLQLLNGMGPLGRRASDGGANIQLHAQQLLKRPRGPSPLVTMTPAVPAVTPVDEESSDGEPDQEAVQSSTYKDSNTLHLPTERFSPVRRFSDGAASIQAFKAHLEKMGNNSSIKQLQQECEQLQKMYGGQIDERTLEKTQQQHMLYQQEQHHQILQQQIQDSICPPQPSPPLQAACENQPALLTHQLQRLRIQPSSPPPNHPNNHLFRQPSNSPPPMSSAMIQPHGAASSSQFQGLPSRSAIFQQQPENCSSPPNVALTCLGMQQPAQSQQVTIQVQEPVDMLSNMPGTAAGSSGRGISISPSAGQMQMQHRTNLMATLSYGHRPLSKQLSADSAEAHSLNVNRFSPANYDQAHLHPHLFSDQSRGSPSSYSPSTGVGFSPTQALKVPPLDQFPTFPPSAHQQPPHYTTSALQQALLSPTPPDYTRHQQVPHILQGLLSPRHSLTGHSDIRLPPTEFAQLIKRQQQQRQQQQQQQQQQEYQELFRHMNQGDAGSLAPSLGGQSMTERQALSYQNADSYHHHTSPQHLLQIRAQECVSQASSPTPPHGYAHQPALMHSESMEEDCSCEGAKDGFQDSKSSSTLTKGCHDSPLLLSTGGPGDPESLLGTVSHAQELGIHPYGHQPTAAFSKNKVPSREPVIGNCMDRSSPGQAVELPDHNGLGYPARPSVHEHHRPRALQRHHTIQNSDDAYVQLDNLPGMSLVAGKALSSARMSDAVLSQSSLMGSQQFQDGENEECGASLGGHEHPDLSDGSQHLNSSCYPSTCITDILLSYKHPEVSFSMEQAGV

Chain of GST-tagged SIK1 (P57059 whole entry): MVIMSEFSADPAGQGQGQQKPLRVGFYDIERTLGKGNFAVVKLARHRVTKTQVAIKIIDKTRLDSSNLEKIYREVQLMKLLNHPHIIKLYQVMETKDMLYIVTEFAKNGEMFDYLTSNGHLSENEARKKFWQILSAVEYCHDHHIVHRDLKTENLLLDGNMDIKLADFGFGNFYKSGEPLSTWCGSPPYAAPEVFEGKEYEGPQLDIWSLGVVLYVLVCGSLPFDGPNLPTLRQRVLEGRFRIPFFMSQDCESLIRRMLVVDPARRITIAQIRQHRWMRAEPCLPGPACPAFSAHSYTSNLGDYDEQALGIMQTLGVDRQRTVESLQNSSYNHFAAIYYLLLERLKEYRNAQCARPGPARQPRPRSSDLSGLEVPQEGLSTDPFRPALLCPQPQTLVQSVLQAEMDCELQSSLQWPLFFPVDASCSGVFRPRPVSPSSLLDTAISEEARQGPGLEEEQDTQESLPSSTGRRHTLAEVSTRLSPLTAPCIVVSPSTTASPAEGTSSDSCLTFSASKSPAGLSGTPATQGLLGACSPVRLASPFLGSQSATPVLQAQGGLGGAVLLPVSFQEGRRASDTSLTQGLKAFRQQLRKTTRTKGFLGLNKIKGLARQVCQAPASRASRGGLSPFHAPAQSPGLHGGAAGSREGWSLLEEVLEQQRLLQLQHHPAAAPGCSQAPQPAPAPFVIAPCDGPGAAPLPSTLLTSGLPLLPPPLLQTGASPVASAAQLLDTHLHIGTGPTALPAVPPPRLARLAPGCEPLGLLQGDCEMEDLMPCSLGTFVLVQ
Chain of GST-tagged SIK2 (Q9H0K1 whole entry): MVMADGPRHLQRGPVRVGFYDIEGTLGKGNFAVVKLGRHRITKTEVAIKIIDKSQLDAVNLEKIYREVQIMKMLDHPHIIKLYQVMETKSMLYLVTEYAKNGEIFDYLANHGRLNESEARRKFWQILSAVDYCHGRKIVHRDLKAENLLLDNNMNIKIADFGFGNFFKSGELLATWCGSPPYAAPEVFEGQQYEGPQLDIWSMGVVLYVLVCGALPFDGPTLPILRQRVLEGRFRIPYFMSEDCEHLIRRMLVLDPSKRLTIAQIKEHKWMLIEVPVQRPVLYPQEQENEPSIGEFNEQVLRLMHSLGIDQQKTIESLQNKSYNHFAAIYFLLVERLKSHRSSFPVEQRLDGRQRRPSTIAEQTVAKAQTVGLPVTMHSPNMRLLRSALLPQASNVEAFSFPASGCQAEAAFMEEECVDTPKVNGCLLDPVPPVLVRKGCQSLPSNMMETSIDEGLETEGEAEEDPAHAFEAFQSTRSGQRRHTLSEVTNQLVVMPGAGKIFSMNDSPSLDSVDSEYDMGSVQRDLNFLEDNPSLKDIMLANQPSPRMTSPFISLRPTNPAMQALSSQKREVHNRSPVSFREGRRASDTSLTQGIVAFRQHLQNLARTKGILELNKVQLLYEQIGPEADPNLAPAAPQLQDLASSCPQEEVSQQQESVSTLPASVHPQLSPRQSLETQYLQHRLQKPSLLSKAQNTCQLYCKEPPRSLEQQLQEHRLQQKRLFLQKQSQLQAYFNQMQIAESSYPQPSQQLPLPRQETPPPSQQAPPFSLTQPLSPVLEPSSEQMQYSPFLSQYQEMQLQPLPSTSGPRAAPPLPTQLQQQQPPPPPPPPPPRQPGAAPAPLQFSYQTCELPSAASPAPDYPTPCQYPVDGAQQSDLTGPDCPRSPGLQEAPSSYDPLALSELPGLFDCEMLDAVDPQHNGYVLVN

For orientation: IC50 means the concentration that inhibits the measured activity by half. Read a high IC50 as weaker potency. On to `CCCn1cc(-c2cc(C#N)c3c(-c4cc(OC)c5c(c4)[C@@H](C)CNC5=O)n(C)nc3c2)cn1` (single isomer, unassigned) [Example 106], for which the IC50 against GST-tagged SIK1 is 8 nM; on GST-tagged SIK2, 3.1 nM; in experiment [2], 19 nM; on GST-tagged SIK3, 6.8 nM. For the same compound, the “TNF α increase inhibition ratio” value in experiment [1] was 47.2** %.

As to `CCn1cc(-c2cc(OC(F)F)c3c(-c4cc(OC)c(C(N)=O)c(OC(F)F)c4)n(C)nc3c2)cn1` [Example 155, 2-(difluoromethoxy)-4-[4-(difluoromethoxy)-6-(1-ethylpyrazol-4-yl)-2-methylindazol-3-yl]-6-methoxybenzamide], the IC50 is 7.4 nM against GST-tagged SIK1, 1.5 nM against GST-tagged SIK2 and 5.5 nM against GST-tagged SIK3.

On to `COc1cc(-c2c3c(OCC(F)F)cc(-c4cnn(C)c4)cc3nn2C)cc(OC(F)F)c1C(N)=O` [Example 156, 4-[4-(2,2-difluoroethoxy)-2-methyl-6-(1-methylpyrazol-4-yl)indazol-3-yl]-2-(difluoromethoxy)-6-methoxybenzamide], for which the IC50 stood at 4.3 nM on GST-tagged SIK1, 0.7 nM on GST-tagged SIK2 and 2.6 nM at GST-tagged SIK3.

With `COc1cc(-c2c3c(OCC(F)(F)F)cc(-c4cnn(C)c4)cc3nn2C)cc(OC(F)F)c1C(N)=O` [Example 157, 2-(difluoromethoxy)-6-methoxy-4-[2-methyl-6-(1-methylpyrazol-4-yl)-4-(2,2,2-trifluoroethoxy)indazol-3-yl]benzamide], the concentration for half-maximal inhibition (IC50) at GST-tagged SIK1 worked out at 5.1 nM; on GST-tagged SIK2, 1 nM; on GST-tagged SIK3, 7.9 nM.

Take `COc1cc(-c2c3c(C(F)F)cc(-c4cnn([C@H]5CCOC5)c4)cc3nn2C)cc(OC(F)F)c1C(N)=O` [Example 158, 2-(difluoromethoxy)-4-[4-(difluoromethyl)-2-methyl-6-[1-[(3S)-oxolan-3-yl]pyrazol-4-yl]indazol-3-yl]-6-methoxybenzamide]: the IC50 was 11.7 nM on GST-tagged SIK1, 2.2 nM against GST-tagged SIK2 and 3.6 nM against GST-tagged SIK3.

Consider `COc1cc(-c2c3c(C(F)F)cc(-c4cnn([C@@H]5CCOC5)c4)cc3nn2C)cc(OC(F)F)c1C(N)=O` [Example 159, 2-(difluoromethoxy)-4-[4-(difluoromethyl)-2-methyl-6-[1-[(3R)-oxolan-3-yl]pyrazol-4-yl]indazol-3-yl]-6-methoxybenzamide], for which the concentration for half-maximal inhibition (IC50) against GST-tagged SIK1 worked out at 13.8 nM; on GST-tagged SIK2 it was 2.8 nM; against GST-tagged SIK3 it was 4.6 nM.

As for `CC1CNC(=O)c2c(OC(F)F)cc(-c3c4c(C#N)cc(-c5cnn(C)c5)cc4nn3C)cc21` (centres unmarked) [Example 160, 3-[8-(difluoromethoxy)-4-methyl-1-oxo-3,4-dihydro-2H-isoquinolin-6-yl]-2-methyl-6-(1-methylpyrazol-4-yl)indazol-4-carbonitrile], the IC50 at GST-tagged SIK1 came out at 7.5 nM; on GST-tagged SIK2 it was 1 nM; at GST-tagged SIK3 it was 3 nM.

For the compound `COc1cc(-c2cnn(C)c2)cc2nn(C)c(-c3cc(OC(F)F)c4c(c3)C(C)CNC4=O)c12` (centres unmarked) [Example 161, 8-(difluoromethoxy)-6-[4-methoxy-2-methyl-6-(1-methylpyrazol-4-yl)indazol-3-yl]-4-methyl-3,4-dihydro-2H-isoquinolin-1-one], the results for the IC50 at GST-tagged SIK1, against GST-tagged SIK2 and at GST-tagged SIK3 were 5.6 nM, 1.3 nM and 10 nM, respectively.

With `Cn1cc(-c2cc(C#N)c3c(-c4cc(OC(F)F)c5c(c4)C(C)(C)CNC5=O)n(C)nc3c2)cn1` [Example 162, 3-[8-(difluoromethoxy)-4,4-dimethyl-1-oxo-2,3-dihydroisoquinolin-6-yl]-2-methyl-6-(1-methylpyrazol-4-yl)indazol-4-carbonitrile], the IC50 is 8.1 nM at GST-tagged SIK1, 2.5 nM against GST-tagged SIK2 and 3.2 nM at GST-tagged SIK3.
